Measured values taken from patent US10442835B2, “Water-soluble rapamycin derivatives” (Zhejiang Hisun Pharmaceutical Co., Ltd., priority 2016, dated 2019).

Experiments:
[1] = Body weight of OS-RC-2 tumor nude mice
Method: The experiment was terminated and tumors were stripped and weighted. The tumor inhibition rate was calculated.
The body weight can indirectly reflect the toxicity of the drugs.

[2] = Drug release in serum by prodrugs; assay type: in vitro ADME, rat; details: 37° C.; HPLC at 10 min to 4 h
Method: The effects of the compounds according to the present invention as prodrugs of rapamycin can be confirmed by standard operational procedures of pharmacological experiments.
10 mL ZnCl2 solution with a concentration of 0.10 mol/L was prepared for use.
1.5 mL blood from ophthalmic artery of rats was injected into a 1.5 mL centrifuge tube and was centrifuged at 12000 rad/min for 10 min. 300 μl supernate (serum) was pipetted into a 1.5 mL centrifuge tube. 7 samples of the serum were prepared for use with the same method.
As a blank control, 100 μl water was added to centrifuge tube No. 7. Then the tubes were incubated at 37° C. in an incubator.
300 μl acetonitrile and 300 μl ZnCl2 solution of 0.1 mol/L were added to each of centrifuge tubes No. 1-6 at 10 min, 0.5 h, 1 h, 2 h, 3 h, and 4 h, respectively. The tubes were vortexed homogeneously for 5 min, so as to end the action of the enzyme in the serum on the compounds. 300 μl acetonitrile and 300 μl ZnCl2 solution of 0.1 M were added to the centrifuge tube No. 7 at 4 h, which was then vortexed homogeneously for 5 min.
Each of the centrifuge tubes No. 1-7 was centrifuged at 12000 rad/min for 15 min. The protein in the serum was removed via centrifuging.

[3] = Test for solubility in water; assay type: physicochemical; details: water, thermodynamic from solid
Method: The experiments herein can measure the dissolution profile in water of the compounds according to the present invention.
To a 25 ml volumetric flask, 25 mg everolimus was added, and diluted with acetonitrile to volume. The mixture was shaken till all the solid dissolved, obtaining 1 mg/mL everolimus solution in acetonitrile.
1 mg/mL everolimus solution in acetonitrile was added to a 10 ml volumetric flask, and was diluted with acetonitrile by 2 times, 10 times, 100 times and 1000 times, so as to obtain everolimus solutions in acetonitrile with a concentration of 0.5 mg/mL, 0.1 mg/mL, 0.01 mg/mL and 0.001 mg/mL, respectively.
Each of the three mixtures was shaken till the solid in the volumetric flask stopped to dissolve. Before analyzed by HPLC, 1 mL of each solution was filtrated via a 0.22 μm filter. The solubility of the compounds was calculated from the standard curve using the peak area of the main peak obtained.
Based on the same study method, comparisons of the solubility between sirolimus/temsirolimus and the compounds modified by glutathione are carried out, respectively.

[4] = In vivo pharmacokinetic study in rats; design: species or system SD rats
Method: To further study the in vivo pharmacokinetic characteristics of compound I-1 in rats, compound I-1 was administrated to SD rats via intravenous injection. The in vivo pharmacokinetic characteristics and bioavailability of everolimus released in rats were measured, and compared with the pharmacokinetic characteristics of everolimus via oral administration.
Then the animals were observed when blood was sampled every time until the last sample was collected.

[5] = Day 5, G4 compound I-1 8.12 mg/kg ig 3×/qw
[6] = Day 5, G5 compound I-1 2.0 mg/kg iv 3×/qw
[7] = Day 5, G6 compound I-1 8.12 mg/kg iv 3×/qw
[8] = Day 5, G7 compound I-1 32.7 mg/kg iv 1×/qw
[9] = Day 8, G4 compound I-1 8.12 mg/kg ig 3×/qw
[10] = Day 8, G5 compound I-1 2.0 mg/kg iv 3×/qw
[11] = Day 8, G6 compound I-1 8.12 mg/kg iv 3×/qw
[12] = Day 8, G7 compound I-1 32.7 mg/kg iv 1×/qw
[13] = Day 12, G4 compound I-1 8.12 mg/kg ig 3×/qw
[14] = Day 12, G5 compound I-1 2.0 mg/kg iv 3×/qw
[15] = Day 12, G6 compound I-1 8.12 mg/kg iv 3×/qw
[16] = Day 12, G7 compound I-1 32.7 mg/kg iv 1×/qw
[17] = Day 15, G4 compound I-1 8.12 mg/kg ig 3×/qw
[18] = Day 15, G5 compound I-1 2.0 mg/kg iv 3×/qw
[19] = Day 15, G6 compound I-1 8.12 mg/kg iv 3×/qw
[20] = Day 15, G7 compound I-1 32.7 mg/kg iv 1×/qw
[21] = Day 19, G4 compound I-1 8.12 mg/kg ig 3×/qw
[22] = Day 19, G5 compound I-1 2.0 mg/kg iv 3×/qw
[23] = Day 19, G6 compound I-1 8.12 mg/kg iv 3×/qw
[24] = Day 19, G7 compound I-1 32.7 mg/kg iv 1×/qw
[25] = Day 22, G4 compound I-1 8.12 mg/kg ig 3×/qw
[26] = Day 22, G5 compound I-1 2.0 mg/kg iv 3×/qw
[27] = Day 22, G6 compound I-1 8.12 mg/kg iv 3×/qw
[28] = Day 22, G7 compound I-1 32.7 mg/kg iv 1×/qw
[29] = Day 26, G4 compound I-1 8.12 mg/kg ig 3×/qw
[30] = Day 26, G5 compound I-1 2.0 mg/kg iv 3×/qw
[31] = Day 26, G6 compound I-1 8.12 mg/kg iv 3×/qw
[32] = Day 26, G7 compound I-1 32.7 mg/kg iv 1×/qw
[33] = Day 29, G4 compound I-1 8.12 mg/kg ig 3×/qw
[34] = Day 29, G5 compound I-1 2.0 mg/kg iv 3×/qw
[35] = Day 29, G6 compound I-1 8.12 mg/kg iv 3×/qw
[36] = Day 29, G7 compound I-1 32.7 mg/kg iv 1×/qw
[37] = Day 32, G4 compound I-1 8.12 mg/kg ig 3×/qw
[38] = Day 32, G5 compound I-1 2.0 mg/kg iv 3×/qw
[39] = Day 32, G6 compound I-1 8.12 mg/kg iv 3×/qw
[40] = Day 32, G7 compound I-1 32.7 mg/kg iv 1×/qw
[41] = Sprague-Dawley (SD), rat, everolimus in plasma, everolimus PO 10 mg/kg, male SD rats

CO[C@H]1C[C@@H]2CC[C@@H](C)[C@@](O)(O2)C(=O)C(=O)N2CCCC[C@H]2C(=O)OC([C@H](C)C[C@@H]2CC[C@@H](OCCOC(=O)CSC[C@H](NC(=O)CC[C@H](N)C(=O)O)C(=O)NCC(=O)O)[C@H](OC)C2)CC(=O)[C@H](C)/C=C(\C)[C@@H](O)[C@@H](OC)C(=O)[C@H](C)C[C@@H](C)\C=C/C=C/C=C/1C (some centres unmarked) [Compound I-1]
Body Weight, mean value ([1]; Day 1, G4 compound I-1 8.12 mg/kg ig 3×/qw): 21.04 g | Body Weight, mean value ([1]; Day 1, G5 compound I-1 2.0 mg/kg iv 3×/qw): 20.67 g | Body Weight, mean value ([1]; Day 1, G6 compound I-1 8.12 mg/kg iv 3×/qw): 21.39 g | Body Weight, mean value ([1]; Day 1, G7 compound I-1 32.7 mg/kg iv 1×/qw): 21.28 g | Body Weight, mean value [1, 5]: 20.27 g | Decrease rate of body weight [1, 5]: 3.7% | Body Weight, mean value [1, 6]: 19.27 g | Decrease rate of body weight [1, 6]: 6.8% | Body Weight, mean value [1, 7]: 20.46 g | Decrease rate of body weight [1, 7]: 4.4% | Body Weight, mean value [1, 8]: 19.97 g | Decrease rate of body weight [1, 8]: 6.2% | Body Weight, mean value [1, 9]: 20.04 g | Decrease rate of body weight [1, 9]: 4.8% | Body Weight, mean value [1, 10]: 18.76 g | Decrease rate of body weight [1, 10]: 9.2% | Body Weight, mean value [1, 11]: 21.16 g | Decrease rate of body weight [1, 11]: 1.1% | Body Weight, mean value [1, 12]: 20.14 g | Decrease rate of body weight [1, 12]: 5.3% | Body Weight, mean value [1, 13]: 19.62 g | Decrease rate of body weight [1, 13]: 6.7% | Body Weight, mean value [1, 14]: 18.71 g | Decrease rate of body weight [1, 14]: 9.5% | Body Weight, mean value [1, 15]: 21.25 g | Decrease rate of body weight [1, 15]: 0.7% | Body Weight, mean value [1, 16]: 19.93 g | Decrease rate of body weight [1, 16]: 6.3% | Body Weight, mean value [1, 17]: 19.29 g | Decrease rate of body weight [1, 17]: 8.3% | Body Weight, mean value [1, 18]: 18.18 g | Decrease rate of body weight [1, 18]: 12.0% | Body Weight, mean value [1, 19]: 20.71 g | Decrease rate of body weight [1, 19]: 3.2% | Body Weight, mean value [1, 20]: 19.38 g | Decrease rate of body weight [1, 20]: 8.9% | Body Weight, mean value [1, 21]: 19.19 g | Decrease rate of body weight [1, 21]: 8.8% | Body Weight, mean value [1, 22]: 18.30 g | Decrease rate of body weight [1, 22]: 11.5% | Body Weight, mean value [1, 23]: 19.67 g | Decrease rate of body weight [1, 23]: 8.0% | Body Weight, mean value [1, 24]: 19.12 g | Decrease rate of body weight [1, 24]: 10.2% | Body Weight, mean value [1, 25]: 19.19 g | Decrease rate of body weight [1, 25]: 8.8% | Body Weight, mean value [1, 26]: 18.30 g | Decrease rate of body weight [1, 26]: 11.5% | Body Weight, mean value [1, 27]: 19.67 g | Decrease rate of body weight [1, 27]: 8.0% | Body Weight, mean value [1, 28]: 19.12 g | Decrease rate of body weight [1, 28]: 10.2% | Body Weight, mean value [1, 29]: 19.65 g | Decrease rate of body weight [1, 29]: 6.6% | Body Weight, mean value [1, 30]: 17.95 g | Decrease rate of body weight [1, 30]: 13.1% | Body Weight, mean value [1, 31]: 19.31 g | Decrease rate of body weight [1, 31]: 9.7% | Body Weight, mean value [1, 32]: 19.12 g | Decrease rate of body weight [1, 32]: 10.2% | Body Weight, mean value [1, 33]: 20.02 g | Decrease rate of body weight [1, 33]: 4.8% | Body Weight, mean value [1, 34]: 18.29 g | Decrease rate of body weight [1, 34]: 11.5% | Body Weight, mean value [1, 35]: 19.04 g | Decrease rate of body weight [1, 35]: 10.5% | Body Weight, mean value [1, 36]: 19.04 g | Decrease rate of body weight [1, 36]: 10.5% | Body Weight, mean value [1, 37]: 19.87 g | Decrease rate of body weight [1, 37]: 5.6% | Body Weight, mean value [1, 38]: 18.12 g | Decrease rate of body weight [1, 38]: 12.3% | Body Weight, mean value [1, 39]: 18.80 g | Decrease rate of body weight [1, 39]: 11.7% | Body Weight, mean value [1, 40]: 18.94 g | Decrease rate of body weight [1, 40]: 10.7% | release of everolimus in rat's serum [2]: slowly release everolimus | stability after dissolving in normal saline: the resulted solution is stable

CO[C@H]1C[C@@H]2CC[C@@H](C)[C@@](O)(O2)C(=O)C(=O)N2CCCC[C@H]2C(=O)O[C@H]([C@H](C)C[C@@H]2CC[C@@H](OCCO)[C@H](OC)C2)CC(=O)[C@H](C)/C=C(\C)[C@@H](O)[C@@H](OC)C(=O)[C@H](C)C[C@H](C)/C=C/C=C/C=C/1C [Everolimus, reference compound]
solubility [3]: < 1 µg/mL | concentration at 3 h ([4]; Sprague-Dawley (SD), rat, plasma, 3 h, oral administration of everolimus 10.000 mg/kg, male SD rats): 64.3 ng/mL | concentration at 4 h ([4]; Sprague-Dawley (SD), rat, plasma, 4 h, oral administration of everolimus 10.000 mg/kg, male SD rats): 61.4 ng/mL | concentration at 6 h ([4]; Sprague-Dawley (SD), rat, plasma, 6 h, oral administration of everolimus 10.000 mg/kg, male SD rats): 32.3 ng/mL | AUC(0-inf) [4, 41]: 454 ng·h/mL | AUC(0-t) [4, 41]: 454 ng·h/mL | Cmax [4, 41]: 126 ng/mL | Tmax [4, 41]: 1.91 h | half-life [4, 41]: 2.2 h | MRT ([4]; Sprague-Dawley (SD), rat, everolimus in plasma, everolimus PO 10 mg/kg, male SD rats, read-out: MRT (mean residence time)): 3.17 h | AUC Extr ([4]; everolimus in plasma, everolimus PO 10 mg/kg, male SD rats): 6.90% | concentration at 0 h ([4]; rat, plasma, 0 h, oral administration of everolimus 10.000 mg/kg, male SD rats): 0 ng/mL | concentration at 0.25 h ([4]; rat, plasma, 0.25 h, oral administration of everolimus 10.000 mg/kg, male SD rats): 17.3 ng/mL | concentration at 0.5 h ([4]; rat, plasma, 0.5 h, oral administration of everolimus 10.000 mg/kg, male SD rats): 99.9 ng/mL | concentration at 1 h ([4]; rat, plasma, 1 h, oral administration of everolimus 10.000 mg/kg, male SD rats): 99.1 ng/mL | concentration at 1.5 h ([4]; rat, plasma, 1.5 h, oral administration of everolimus 10.000 mg/kg, male SD rats): 90.4 ng/mL | concentration at 2 h ([4]; rat, plasma, 2 h, oral administration of everolimus 10.000 mg/kg, male SD rats): 69.7 ng/mL | concentration at 8 h ([4]; rat, plasma, 8 h, oral administration of everolimus 10.000 mg/kg, male SD rats): 16.3 ng/mL | concentration at 24 h ([4]; rat, plasma, 24 h, oral administration of everolimus 10.000 mg/kg, male SD rats): 2.2 ng/mL | area under the curve (AUC) of plasma concentration of everolimus vs. time ([4]; rats orally administrated with everolimus 10 mg/Kg): about 450
